What all share (assay type): functional, cell-based
Common to all, as to conditions: hamster

Data set [1] concerns the target T1, Hepatic sodium/bile acid cotransporter (Rattus norvegicus, UniProt P26435).
T1 sequence (P26435 whole entry): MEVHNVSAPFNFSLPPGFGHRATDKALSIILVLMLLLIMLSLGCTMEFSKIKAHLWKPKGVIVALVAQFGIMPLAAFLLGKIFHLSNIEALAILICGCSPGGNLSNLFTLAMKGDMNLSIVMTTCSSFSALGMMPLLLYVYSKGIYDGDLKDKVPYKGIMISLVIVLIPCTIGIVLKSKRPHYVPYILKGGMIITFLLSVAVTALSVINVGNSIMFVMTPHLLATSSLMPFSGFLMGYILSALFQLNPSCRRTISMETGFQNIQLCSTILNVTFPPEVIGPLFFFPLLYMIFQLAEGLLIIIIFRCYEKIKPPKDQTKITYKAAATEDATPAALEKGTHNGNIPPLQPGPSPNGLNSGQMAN
In words: TP_TRANSPORTER: inhibition of Taurocholate uptake (Taurocholate: 2.5 uM, E1S: 200 uM) in Ntcp-expressing CHO cells.

For data set [2], the target named is T1, Hepatic sodium/bile acid cotransporter. In words: TP_TRANSPORTER: inhibition of Taurocholate uptake (Taurocholate: 2.5 uM, Progesterone: 200 uM) in Ntcp-expressing CHO cells.
For data set [3] the target is unchanged. Nature of the data set: TP_TRANSPORTER: inhibition of Taurocholate uptake (Taurocholate: 2.5 uM, Estradiol-3-sulfate: 68 uM) in Ntcp-expressing CHO cells.
The target is the same in data set [4]. Nature of the data set: TP_TRANSPORTER: inhibition of Taurocholate uptake (Taurocholate: 2.5 uM, Testosterone: 200 uM) in Ntcp-expressing CHO cells.

For the compound `C[C@]12CC[C@@H]3c4ccc(OS(=O)(=O)O)cc4CC[C@H]3[C@@H]1CCC2=O` [ESTRONE SULFURIC ACID], the Activity result in data set [1] was “inhibitor [(at a rough estmate) 30 % of control]”. As to `CC(=O)[C@H]1CC[C@H]2[C@@H]3CCC4=CC(=O)CC[C@]4(C)[C@H]3CC[C@]12C` [PROGESTERONE], the Activity entry in data set [2] is “inhibitor [(at a rough estmate) 70 % of control]”. In the case of `C[C@]12CC[C@@H]3c4ccc(OS(=O)(=O)O)cc4CC[C@H]3[C@@H]1CC[C@@H]2O`, the Activity result in data set [3] was “inhibitor [(at a rough estmate) 5 % of control]”. For the compound `C[C@]12CC[C@H]3[C@@H](CCC4=CC(=O)CC[C@@]43C)[C@@H]1CC[C@@H]2O` [TESTOSTERONE], in data set [4], the Activity entry was “inhibitor [(at a rough estmate) 50 % of control]”.

The values above are taken from ChEMBL document CHEMBL2074562, “Substrate specificity of the rat liver Na(+)-bile salt cotransporter in Xenopus laevis oocytes and in CHO cells” (Am J Physiol, 1998).
